According to patent US11345694B2, “Antibacterial compounds” (DISCUVA LTD., priority 2017, dated 2022):
Converted amounts (≈) assume the structure as drawn. Read-outs that look alike come from different tables or passages of the source.

Key:
[1] = tested on: human hepatocarcinoma cell line ATCC HB-8065 (HepG2); assay: Human cell viability (CellTiter-Glo); type: cell-based; settings: HepG2 cells, 24 h incubation, CellTiter-Glo luminescence, 0.2-100 μM, read-out: IC50 values against the HepG2 cell line
Method: Compounds are assessed for potential non-specific cytotoxic effects against the human hepatocarcinoma cell line ATCC HB-8065 (HepG2). HepG2 cells are seeded at 20,000 cells/well in 96-well microtitre plates in minimal essential medium (MEM) supplemented with a final concentration of 10% FBS. After 24 h, compound dilutions are prepared in MEM supplemented with a final concentration of 1% FBS, and added to the cells. Compounds are tested in two-fold serial dilutions over a final concentration range of 0.2-100 μM in a final DMSO concentration of 1% vol/vol. Thioridazine is used as a positive control. Cells are incubated with compound at 37° C. and 5% CO2 for a further 24 h, after which time the CellTiter-Glo reagent (Promega) is added. Luminescence is measured on a Perkin Elmer Envision plate reader. Data are analysed using a 4 parameter logistic regression to determine the concentration of compound that inhibits cell viability by fifty percent (IC50).

[2] = tested on: Staphylococcus aureus ATCC 35556 (SA); assay: MIC broth microdilution; type: cell-based; settings: for MIC: ATCC35556
Method: (§1) Minimum Inhibitory Concentrations (MICs) versus planktonic bacteria are determined by the broth microdilution procedure according to the guidelines of the Clinical and Laboratory Standards Institute (Clinical and Laboratory Standards Institute. Methods for Dilution Antimicrobial Susceptibility Tests for Bacteria That Grow Aerobically; Approved Standard-tenth Edition. CLSI document M07-A10, 2015). The broth dilution method involves a two-fold serial dilution of compounds in 96-well microtitre plates, giving a final concentration range of 0.39-200 μM and a maximum final concentration of 2% DMSO. The bacterial strains tested include Escherichia coli K12 (EC), E. coli NCTC 13441 (UPEC), Staphylococcus aureus ATCC 35556 (SA), Acinetobacter baumannii ATCC 17978 (AB), Pseudomonas aeruginosa ATCC 33359 (PA), Enterobacter cloacae DSM 30054 (Ed), Serratia marcescens SL1344 (Sm), Salmonella typhimurium XNAA5 (St), Klebsiella pneumoniae ATCC 10031 (KP2), K. pneumoniae NCTC 13438 (KP1), K. pneumoniae ATCC 700603 (KP3), Klebsiella pneumoniae ATCC 51504 (KP4), K. pneumoniae H154680676 (KP5), K. pneumoniae H154020667 (KP6), K. pneumoniae H154640784 (KP7), K. pneumoniae H154600588 (KP8), K. pneumoniae H154300688 (KP9), K. pneumoniae H151440671 (KP10). Strains are grown in cation-adjusted Müller-Hinton broth or on Luria Bertoni agar at 37° C. in an ambient atmosphere. The MIC is determined as the lowest concentration of compound that inhibits growth following a 20-24 hour incubation period.

[3] = tested on: Acinetobacter baumannii ATCC 17978 (AB); assay: MIC broth microdilution; type: cell-based; settings: for MIC: ATCC17978
Method: as §1

[4] = tested on: Klebsiella pneumoniae ATCC 10031 (KP2); assay: MIC broth microdilution; type: cell-based; settings: for MIC: ATCC10031
Method: as §1

[5] = tested on: Pseudomonas aeruginosa ATCC 33359 (PA); assay: MIC broth microdilution; type: cell-based; settings: for MIC: ATCC33359
Method: as §1

[6] = tested on: Escherichia coli K12 (EC); assay: MIC broth microdilution; type: cell-based
Method: as §1

[7] = tested on: E. coli NCTC 13441 (UPEC); assay: MIC broth microdilution; type: cell-based, Escherichia coli; settings: for MIC: Escherichia coli, NCTC13441
Method: as §1

[8] = tested on: K. pneumoniae NCTC 13438 (KP1); assay: MIC broth microdilution; type: cell-based, Klebsiella pneumoniae; settings: for MIC: Klebsiella pneumoniae, NCTC13438
Method: as §1

| SMILES | IC50 [1] | MIC SA [2] | MIC AB [3] | MIC KP2 [4] | MIC PA [5] | MIC EC [6] | MIC UPEC [7] | MIC KP1 [8] | IC50 ([1]; Homo sapiens) | MIC [2] | MIC [3] | MIC [4] | MIC [5] | MIC [6] | MIC [7] | MIC [8] |
| --- | --- | --- | --- | --- | --- | --- | --- | --- | --- | --- | --- | --- | --- | --- | --- | --- |
| Cc1cc(-c2[nH]c(C(=O)O)nc2-c2ccc3c(c2)OCCO3)ccn1 [Example 86, 4-(2,3-dihydrobenzo[b][1,4]dioxin-6-yl)-5-(2-methylpyridin-4-yl)-1H-imidazole-2-carboxylate] | > 100 µM | D (a MIC of over 100 is assigned the letter D) | D (a MIC of over 100 is assigned the letter D) | B (a MIC of from 1 to 10 is assigned the letter B) | D (a MIC of over 100 is assigned the letter D) | D (a MIC of over 100 is assigned the letter D) | D (a MIC of over 100 is assigned the letter D) | D (a MIC of over 100 is assigned the letter D) |  |  |  |  |  |  |  |  |
| Cc1cc(-c2[nH]c(N)nc2-c2ccc3c(c2)N(C2CCCC2)CCO3)ccn1 [Example 94, 4-(4-Cyclopentyl-3,4-dihydro-2H-benzo[b][1,4]oxazin-6-yl)-5-(2-methylpyridin-4-yl)-1H-imidazol-2-amine] |  |  |  |  |  |  |  |  | 25 to 100 µM | > 100 µM | > 100 µM | ≤ 1 µM | > 100 µM | ≤ 1 µM | ≤ 1 µM | 1 to 10 µM (≈ 0.375 to 3.75 µg/mL) |
| Cc1cc(-c2[nH]c(N)nc2-c2ccc3c(c2)NCC(C)O3)ccn1 (stereo not shown) [Example 34, 4-(2-Methyl-3,4-dihydro-2H-benzo[b][1,4]oxazin-6-yl)-5-(2-methylpyridin-4-yl)-1H-imidazol-2-amine] |  |  |  |  |  |  |  |  | > 100 µM | > 100 µM | > 100 µM | ≤ 1 µM | > 100 µM | 1 to 10 µM (≈ 0.321 to 3.21 µg/mL) | 1 to 10 µM (≈ 0.321 to 3.21 µg/mL) | 1 to 10 µM (≈ 0.321 to 3.21 µg/mL) |
| Cc1cc(-c2[nH]c(N)nc2-c2ccc3c(c2F)OCCO3)ccn1 [Example 60, 4-(5-Fluoro-2,3-dihydrobenzo[b][1,4]dioxin-6-yl)-5-(2-methylpyridin-4-yl)-1H-imidazol-2-amine] |  |  |  |  |  |  |  |  | > 100 µM | > 100 µM | > 100 µM | ≤ 1 µM | > 100 µM | 1 to 10 µM (≈ 0.326 to 3.26 µg/mL) | 1 to 10 µM (≈ 0.326 to 3.26 µg/mL) | 10 to 100 µM (≈ 3.26 to 32.6 µg/mL) |
| Cc1cc(-c2[nH]c(CN)nc2-c2ccc3c(c2)OCCO3)ccn1 [Example 87, (4-(2,3-Dihydrobenzo[b][1,4]dioxin-6-yl)-5-(2-methylpyridin-4-yl)-1H-imidazol-2-yl)methanamine] |  |  |  |  |  |  |  |  | > 100 µM | > 100 µM | > 100 µM | ≤ 1 µM | > 100 µM | 1 to 10 µM (≈ 0.322 to 3.22 µg/mL) | 1 to 10 µM (≈ 0.322 to 3.22 µg/mL) | 10 to 100 µM (≈ 3.22 to 32.2 µg/mL) |
| COc1cc(-c2[nH]c(N)nc2-c2ccnc(C)c2)ccc1F [Example 6, 5-(4-Fluoro-3-methoxyphenyl)-4-(2-methylpyridin-4-yl)-1H-imidazol-2-amine] |  |  |  |  |  |  |  |  | > 100 µM | > 100 µM | > 100 µM | ≤ 1 µM | > 100 µM | 1 to 10 µM (≈ 0.298 to 2.98 µg/mL) | 1 to 10 µM (≈ 0.298 to 2.98 µg/mL) | 10 to 100 µM (≈ 2.98 to 29.8 µg/mL) |
| Cc1cc(-c2[nH]c(N)nc2-c2ccc(OC(F)(F)F)cc2)ccn1 [Example 20, 5-(2-Methylpyridin-4-yl)-4-(4-(trifluoromethoxy)phenyl)-1H-imidazol-2-amine] |  |  |  |  |  |  |  |  | 25 to 100 µM | > 100 µM | > 100 µM | ≤ 1 µM | > 100 µM | 1 to 10 µM (≈ 0.334 to 3.34 µg/mL) | 1 to 10 µM (≈ 0.334 to 3.34 µg/mL) | 10 to 100 µM (≈ 3.34 to 33.4 µg/mL) |
| Cc1cc(-c2[nH]c(N)nc2-c2ccc3c(c2)N(CCN)CCO3)ccn1 [Example 91, 4-(4-(2-Aminoethyl)-3,4-dihydro-2H-benzo[b][1,4]oxazin-6-yl)-5-(2-methylpyridin-4-yl)-1H-imidazol-2-amine] |  |  |  |  |  |  |  |  | > 100 µM | > 100 µM | > 100 µM | ≤ 1 µM | > 100 µM | ≤ 1 µM | ≤ 1 µM | ≤ 1 µM |
